We go through 17 molecules from patent US8853230B2, “Inhibitors of JAK” (Portola Pharmaceuticals, Inc., priority 2009, dated 2014).

The subject of test [1] is IL4-induced phospho STAT6 formation in Ramos B lymphocytes. The test is described as follows: Inhibition of IL4-induced phospho STAT6 formation in Ramos B lymphocytes (flow cytometry). To be noted: Homo sapiens; for inhibition at 0.2 µM: 200 nM compound, read-out: % Inhibition of IL-4 Induced STAT6 Phosphorylation 200 nM; for inhibition at 1 µM: 1 μM compound, read-out: % Inhibition of IL-4 Induced STAT6 Phosphorylation 1 μM. Type of test: cell-based, human. The source says: Similar types of assays can be used to assess JAK inhibitory activity and to determine the degree of selectivity of the particular compound as compared to syk. One means of assaying for such inhibition is detection of the effect of the compounds of the present invention on the upregulation of downstream gene products. In the Ramos/IL4 assay, B-cells are stimulated with the cytokine Interleukin-4 (IL-4) leading to the activation of the JAK/Stat pathway through phosphorylation of the JAK family kinases, JAK1 and JAK3, which in turn phosphorylate and activate the transcription factor Stat-6. […] To study the effect of inhibitors (e.g., the 2,4-substituted pyrimindinediamine compounds described herein) on the JAK1 and JAK3, human Ramos B-cells are stimulated with human IL-4. 10′ post-stimulation, cells are subjected to intracellular flow cytometry to measure the extent of STAT-6 phosphorylation. 20 to 24 hours post-stimulation, cells are stained for upregulation of CD23 and analyzed using flow cytometry.
Inhibition of IL4-induced phospho STAT6 formation was measured by pre-incubating 0.5 million Ramos B lymphocytes (ATCC) with 5 μl compound or DMSO vehicle for 1 hour at 37° C./5% CO2. Cells were activated by addition of 1 ng/ml [f]IL4 (R & D Research Systems) for 10 min at 37° C./5% CO2 and then fixed by addition of 1.6% [f]PFA (Electron Microscopy Services). Following a PBS wash step and permaeabilization with 100% methanol, cells were incubated with ALEXA-conjugated anti-phosphoSTAT6 (Y641) antibody (BD 612600). The extent of cell associated-fluorescence was determined by flow cytomentry and data expressed as mean fluorescent intensity. The extent of inhibition of the IL4-induced signal was then calculated.
Background: A flow cytometer gives signals particle by particle.

A further test addresses T1, TYK2 (Homo sapiens, UniProt P29597).
T1 construct: 5 μl of catalytic domain recombinant Kinase enzyme+Tyr peptide substrate (Invitrogen, Calif.); purchased Invitrogen
T1 sequence (P29597 897-1176 limits assumed): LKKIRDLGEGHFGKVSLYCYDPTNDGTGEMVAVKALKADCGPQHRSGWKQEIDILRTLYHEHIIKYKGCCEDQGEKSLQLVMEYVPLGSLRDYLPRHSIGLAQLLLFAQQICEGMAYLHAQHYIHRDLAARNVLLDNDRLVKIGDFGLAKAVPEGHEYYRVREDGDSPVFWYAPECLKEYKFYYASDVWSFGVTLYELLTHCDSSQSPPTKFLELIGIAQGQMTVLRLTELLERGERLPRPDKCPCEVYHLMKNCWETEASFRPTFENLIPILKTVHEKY
The test is described as follows: Z'-LYTE kinase assay, TYK2 tyrosine phosphorylation activity. Type of test: biochemical. The method in brief:
(§1)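 Catalytic-domain recombinant enzymes phosphorylate a coumarin/fluorescein-labelled Tyr6 peptide for 1 h at room temperature in the presence of ATP and compound (1% DMSO). Development Reagent then cleaves non-phosphorylated peptide over 1 h, and emission ratio 445/520 nm (ex 400 nm) gives percent phosphorylation; IC50 by 4-parameter logistic model.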

Another test has as its target T2, JAK3 (Homo sapiens, UniProt P52333).
T2 construct: 5 μl of catalytic domain recombinant Kinase enzyme+Tyr peptide substrate (Invitrogen, Calif.); purchased Invitrogen
The test is described as follows: Z'-LYTE kinase assay, JAK3 tyrosine phosphorylation activity. Type of test: biochemical. The gist of the method: as §1

A further test addresses T3, JAK1 (Homo sapiens, UniProt P23458).
T3 construct: 5 μl of catalytic domain recombinant Kinase enzyme+Tyr peptide substrate (Invitrogen, Calif.); purchased Invitrogen
The experiment in a line: Z'-LYTE kinase assay, JAK1 tyrosine phosphorylation activity. Type of test: biochemical. Conditions: read-out: JAK 1 IC50. The method in brief:
as §1

The target of a further test is T4, JAK2 (Homo sapiens, UniProt O60674).
T4 construct: 5 μl of catalytic domain recombinant Kinase enzyme+Tyr peptide substrate (Invitrogen, Calif.); purchased Invitrogen
T4 sequence (O60674 849-1124 limits assumed): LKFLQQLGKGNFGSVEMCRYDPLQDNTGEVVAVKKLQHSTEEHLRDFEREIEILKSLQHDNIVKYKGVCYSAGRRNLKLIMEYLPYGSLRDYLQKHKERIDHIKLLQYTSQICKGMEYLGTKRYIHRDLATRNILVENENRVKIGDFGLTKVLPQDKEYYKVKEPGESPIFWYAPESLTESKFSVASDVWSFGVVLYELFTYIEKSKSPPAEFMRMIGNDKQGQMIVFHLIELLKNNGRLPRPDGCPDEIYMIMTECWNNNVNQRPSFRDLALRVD
The test is described as follows: Z'-LYTE kinase assay, JAK2 tyrosine phosphorylation activity. In kind it is biochemical. The gist of the method: as §1

T2 sequence (P52333 822-1111 limits assumed): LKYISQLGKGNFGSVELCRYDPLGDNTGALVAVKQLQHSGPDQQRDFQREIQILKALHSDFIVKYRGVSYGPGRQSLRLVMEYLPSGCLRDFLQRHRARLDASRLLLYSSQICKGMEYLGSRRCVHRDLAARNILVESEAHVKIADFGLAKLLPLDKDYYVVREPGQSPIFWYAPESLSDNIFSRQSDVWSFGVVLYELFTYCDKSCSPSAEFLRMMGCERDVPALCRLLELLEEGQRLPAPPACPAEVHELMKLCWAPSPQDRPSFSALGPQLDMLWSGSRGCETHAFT
T3 sequence (P23458 875-1153 limits assumed): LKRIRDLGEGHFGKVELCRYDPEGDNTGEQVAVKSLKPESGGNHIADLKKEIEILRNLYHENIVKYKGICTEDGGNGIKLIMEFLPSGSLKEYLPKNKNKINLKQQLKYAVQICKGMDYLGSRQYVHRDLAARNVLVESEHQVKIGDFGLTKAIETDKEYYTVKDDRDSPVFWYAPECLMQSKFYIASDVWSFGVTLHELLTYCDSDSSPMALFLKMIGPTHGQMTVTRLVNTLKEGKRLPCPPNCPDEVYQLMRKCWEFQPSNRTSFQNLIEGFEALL

The term inhibition denotes the drop in the measured response relative to a control, in per cent. As usually defined, the IC50 is the concentration needed to halve the response being measured. Take `NC(=O)c1cnc(Nc2cccc(NC(=O)N3CC[C@H](O)C3)c2)nc1NCc1ccccc1` [Example 143, (S)-4-(benzylamino)-2-(3-(3-hydroxypyrrolidine-1-carboxamido)phenylamino)pyrimidine-5-carboxamide]: in test [1], the inhibition at 0.2 µM was 44.7%. Besides, the inhibition at 1 µM in test [1] was 85.7%. The IC50 is 1 to 10 nM against TYK2, 1 to 10 nM at JAK3, 10 to 100 nM on JAK1 and 10 to 100 nM against JAK2.

With `CC(=O)Nc1cc(Nc2ncc(C(N)=O)c(N[C@H](C)c3ccccc3)n2)ccc1Cl` [Example 108, (R)-2-(3-acetamido-4-chlorophenylamino)-4-(1-phenylethylamino)pyrimidine-5-carboxamide], the inhibition at 0.2 µM in test [1] was 21.3%. Moreover, in test [1], the inhibition at 1 µM turned out to be 70%. Moreover, the IC50 fell in the range of 10 to 100 nM against TYK2, 1 to 10 nM on JAK3, 100 to 1000 nM on JAK1 and 10 to 100 nM against JAK2.

For `CNC(=O)Nc1cc(Nc2ncc(C(N)=O)c(NCc3ccccc3)n2)ccc1C` [Example 157, 4-(benzylamino)-2-(4-methyl-3-(3-methylureido)phenylamino)pyrimidine-5-carboxamide], the inhibition at 0.2 µM in test [1] was 23%. Also, in test [1], the inhibition at 1 µM came out at 31.7%. Further, the IC50 on TYK2 lay in the range of 1 to 10 nM; against JAK3, 1 to 10 nM; at JAK1 it was 10 to 100 nM; on JAK2, 10 to 100 nM.

Turning to `CC(=O)Nc1cccc(Nc2ncc(C(N)=O)c(NCC3CCNCC3)n2)c1` [Example 190, 2-(3-acetamidophenylamino)-4-(piperidin-4-ylmethylamino)pyrimidine-5-carboxamide], the inhibition at 0.2 µM in test [1] worked out at 17%. Besides, in test [1], the inhibition at 1 µM was 39.3%. Besides, the IC50 against TYK2 lay within 10 to 100 nM; against JAK3 it was 1 to 10 nM; at JAK1, 10 to 100 nM; against JAK2 it was 10 to 100 nM.

Take `NC(=O)c1cnc(Nc2ccc(F)c(NC(=O)N3CCC3)c2)nc1NCc1ccccc1` [Example 234, 2-(3-(azetidine-1-carboxamido)-4-fluorophenylamino)-4-(benzylamino)pyrimidine-5-carboxamide]: the inhibition at 0.2 µM in test [1] was 34.3%. Moreover, in test [1], the inhibition at 1 µM amounted to 77%. Besides, the IC50 fell in the range of 10 to 100 nM on TYK2, 1 to 10 nM on JAK3, 10 to 100 nM on JAK1 and 10 to 100 nM at JAK2.

Regarding `COc1ccc(Nc2ncc(C(N)=O)c(NCc3ccccc3)n2)cc1NC(=O)N1CCCC1` [Example 163, 4-(benzylamino)-2-(4-methoxy-3-(pyrrolidine-1-carboxamido)phenylamino)pyrimidine-5-carboxamide], the inhibition at 0.2 µM in test [1] was determined as 20.7%. Moreover, the inhibition at 1 µM in test [1] came out at 61%. Further, the IC50 lay in the range of 1 to 10 nM on TYK2, 1 to 10 nM at JAK3, 10 to 100 nM on JAK1 and 10 to 100 nM on JAK2.

With `CN(C)C(=O)Nc1ccc(F)c(Nc2ncc(C(N)=O)c(NCc3ccccc3)n2)c1` [Example 201, 4-(benzylamino)-2-(5-(3,3-dimethylureido)-2-fluorophenylamino)pyrimidine-5-carboxamide], the IC50 was 100 to 1000 nM against TYK2, 10 to 100 nM against JAK3, above 1000 nM at JAK1 and above 1000 nM against JAK2.

Take `NC(=O)c1cnc(Nc2ccc(Cl)c(NC(=O)N3CCCC3)c2)nc1NCC1CCC1` [Example 263, 2-(4-chloro-3-(pyrrolidine-1-carboxamido)phenylamino)-4-(cyclobutylmethylamino)pyrimidine-5-carboxamide]: the IC50 at TYK2, at JAK3, on JAK1 and on JAK2 was above 1000 nM throughout.

For `CN(C(=O)N1CCCC1)c1cccc(Nc2ncc(C(N)=O)c(NCC3CC3)n2)c1` [Example 127, 4-(cyclopropylmethylamino)-2-(3-(N-methylpyrrolidine-1-carboxamido)phenylamino)pyrimidine-5-carboxamide], the IC50 was in the range of 100 to 1000 nM on TYK2, 10 to 100 nM against JAK3, 100 to 1000 nM at JAK1 and 10 to 100 nM on JAK2.

Regarding `CNC(=O)Nc1ccc(F)c(Nc2ncc(C(N)=O)c(NCc3ccccc3)n2)c1` [Example 200, 4-(benzylamino)-2-(2-fluoro-5-(3-methylureido)phenylamino)pyrimidine-5-carboxamide], the half-maximal inhibitory concentration (IC50) against TYK2 was 100 to 1000 nM; against JAK3 it was 10 to 100 nM; on JAK1 it was above 1000 nM; at JAK2, above 1000 nM.

Consider `CC(=O)Nc1cccc(Nc2cc(NCc3cccc(Cl)c3)c(C(N)=O)cn2)c1` [Example 337, 6-(3-acetamidophenylamino)-4-(3-chlorobenzylamino)nicotinamide], for which the IC50 is 100 to 1000 nM against TYK2, 10 to 100 nM on JAK3, 100 to 1000 nM at JAK1 and 100 to 1000 nM at JAK2.

`CN(C(=O)N1CCCC1)c1cc(Nc2ncc(C(N)=O)c(NCc3cccc(F)c3)n2)ccc1Cl` [Example 242, 2-(4-chloro-3-(N-methylpyrrolidine-1-carboxamido)phenylamino)-4-(3-fluorobenzylamino)pyrimidine-5-carboxamide]: the IC50 at TYK2 was above 1000 nM; against JAK3, 100 to 1000 nM; at JAK1, above 1000 nM; at JAK2, above 1000 nM.

For `CNC(=O)Nc1cc(Nc2ncc(C(N)=O)c(NCc3ccccc3)n2)ccc1F` [Example 158, 4-(benzylamino)-2-(4-fluoro-3-(3-methylureido)phenylamino)pyrimidine-5-carboxamide], the IC50 against TYK2 was 10 to 100 nM; at JAK3 it was 1 to 10 nM; at JAK1, above 1000 nM; at JAK2 it was 10 to 100 nM.

In the case of `NC(=O)c1cnc(Nc2ccc(Cl)c(NC(=O)N3CCCC3)c2)nc1NC1CCCC1` [Example 167, 2-(4-chloro-3-(pyrrolidine-1-carboxamido)phenylamino)-4-(cyclopentylamino)pyrimidine-5-carboxamide], the IC50 on TYK2 is 10 to 100 nM; against JAK3 it was 10 to 100 nM; at JAK1, 10 to 100 nM; on JAK2, 100 to 1000 nM.

On to `CNC(=O)c1cnc(Nc2cccc(NC(=O)COC)c2)nc1NC1Cc2ccccc2C1` [Example 114, 4-(2,3-dihydro-1H-inden-2-ylamino)-2-(3-(2-methoxyacetamido)phenylamino)-N-methylpyrimidine-5-carboxamide], for which the half-maximal inhibitory concentration (IC50) at TYK2, against JAK3, at JAK1 and at JAK2 was 10 to 100 nM throughout.

Turning to `CCn1ccc2c(Nc3nc(Nc4cccc(NC(C)=O)c4)ncc3C(N)=O)cccc21` [Example 185, 2-(3-acetamidophenylamino)-4-(1-ethyl-1H-indol-4-ylamino)pyrimidine-5-carboxamide], the IC50 on TYK2 lay within 1 to 10 nM; against JAK3, 1 to 10 nM; at JAK1, 10 to 100 nM; at JAK2, 10 to 100 nM.

`N#CCC(=O)Nc1cccc(Nc2ncc(C(N)=O)c(NCc3cccc(F)c3)n2)c1` [Example 257, 2-(3-(2-cyanoacetamido)phenylamino)-4-(3-fluorobenzylamino)-pyrimidine-5-carboxamide]: the IC50 against TYK2 is 1 to 10 nM; against JAK3, below 1 nM; on JAK1, 10 to 100 nM; on JAK2 it was 1 to 10 nM.
